Results from ChEMBL document CHEMBL5143668, “Modular synthesis of 2,4-diaminoanilines as CNS drug-like non-covalent inhibitors of asparagine endopeptidase” (Bioorg Med Chem, 2022).

Experiments:
Legumain (Homo sapiens) = molecular target: T1, Legumain (Homo sapiens) (UniProt Q99538); assay: Inhibition of recombinant human Asparagine endopeptidase at 10 uM preincubated for 5 mins followed by Z-Ala-Ala-Asn-AMC substrate addition measured after 2 hrs by microplate reader relative to control
T1 sequence (whole entry): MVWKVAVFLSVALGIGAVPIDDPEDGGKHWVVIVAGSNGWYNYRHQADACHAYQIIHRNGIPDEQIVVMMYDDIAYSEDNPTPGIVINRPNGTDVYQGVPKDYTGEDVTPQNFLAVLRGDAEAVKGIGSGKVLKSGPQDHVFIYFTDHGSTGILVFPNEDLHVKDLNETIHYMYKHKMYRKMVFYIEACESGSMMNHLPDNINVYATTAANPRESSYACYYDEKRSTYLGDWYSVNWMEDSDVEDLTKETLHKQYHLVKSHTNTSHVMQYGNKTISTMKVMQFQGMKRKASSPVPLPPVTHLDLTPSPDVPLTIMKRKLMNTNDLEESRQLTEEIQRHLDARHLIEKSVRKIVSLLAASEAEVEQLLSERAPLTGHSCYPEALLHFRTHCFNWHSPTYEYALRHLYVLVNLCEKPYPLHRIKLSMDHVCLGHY

[1] = Dissociation constant, pKa of compound; format: physicochemical
Legumain = molecular target: T2, Legumain (Homo sapiens, UniProt Q99538); assay: Inhibition of recombinant human Asparagine endopeptidase preincubated for 5 mins followed by Z-Ala-Ala-Asn-AMC substrate addition measured after 2 hrs by microplate reader
T2 sequence (Q99538 whole entry): T1 sequence (whole entry)

L929 = assay: Cytotoxicity of mouse L929 cells assessed as reduction in cell viability at 5 to 500 nM measured after 24 hrs by MTT assay; format: toxicity, cell-based; settings: l929, 24 h, 0.5 µM, dose 5-500 nM

SMILES | inhibition (Legumain (Homo sapiens)) | pKa [1] | IC50 (Legumain) | Activity (L929)
Nc1ccc(N2CCOCC2)cc1N1CCC2(CC1)OCCO2 | 100% | 8.62 | 547 nM | 
Nc1ccc(N2CCOCC2)cc1N1CCC[C@H]1CO | 48% | 6.96 | > 5000 nM | 
CCOC(=O)C1CCN(c2ccc(N)c(N3CCC(C(=O)OCC)CC3)c2)CC1 | 53% | 10.6 | 4830 nM | Non-Toxic
Nc1ccc(N2CCOCC2)cc1Cl | 47% | 4.05 | > 5000 nM | 
Nc1ccc(N2CCOCC2)cc1N1CCOCC1 | 100% | 8.54 | 844 nM | Non-Toxic
CCOC(=O)C1CCN(c2cc(N3CCOCC3)ccc2N)CC1 | 98% | 8.8 | 89 nM | Non-Toxic

Now from value to molecule, other results behind:

inhibition (Legumain (Homo sapiens)) | pKa [1] | IC50 (Legumain) | SMILES | Activity (L929)
81% | 10.1 | 757 nM | Nc1ccc(N2CCSCC2)cc1N1CCSCC1 | 
42% | 6.96 | > 5000 nM | Nc1ccc(N2CCOCC2)cc1N1CCCC1 | 
43% | 5.61 | > 5000 nM | Nc1ccc(N2CCSCC2)cc1Cl | 
89% | 8.54 | 498 nM | Nc1ccc(N2CCOCC2)cc1N1CCSCC1 | 
